Assay results taken from patent US6552167B1, “Polyamide chains of precise length” (Gryphon Therapeutics, Inc., priority 1998, dated 2003).
Positions of bridges follow the written chain, without caps; N, C: chain ends. 'PEG'‑succ = not defined here

Columns and labels:
[1] = test system: human leukemic UT-7 EPO dependent cell line; assay: EPO activity in a cell culture assay (UT-7 EPO dependent cell line); type: cell-based; conditions: for ED50 (effective dose giving 50% of maximum response): UT-7 EPO dependent cell line
Experimental: Precise Length EMP-dimers with linkers of different lengths were assayed for EPO activity in a cell culture assay (human leukemic UT-7 EPO dependent cell line). Recombinant EPO and the EMP monomer peptides were included as controls, where the monomer is designated as “mono” in Table 1.
The short linker in the precise length EMP-dimer (designated “s” in Table 1) was -(‘PEG’-succ)2-‘PEG’-(succ-‘PEG’)2-. The medium linker (designated “m” in Table 1) was -(‘PEG’-succ)6-‘PEG’-(succ-‘PEG’)6- and the long linker (designated “1” in Table 1) was -(‘PEG’-succ)8-‘PEG’-(succ-‘PEG’)8-.
Table 1 presents the mean OD's for each peptide sample.
Table 2 presents the mean OD's for recombinant EPO sample.
It was clear, from the results presented above, that the ED50 (effective dose giving 50% of maximum response) values were as presented in Table 3.

[2] = test system: BCL, turnor cell line; conditions: disulfide bond between the cysteines; Terskikh, et al.; cited from earlier work
[3] = test system: trypsin; assay: Polyamide stability to protease digestion, HPLC analysis (trypsin); conditions: 24 hours; 1 mg/ml in 1% ammonium bicarbonate, enzyme:substrate 1:100, 37° C.
Experimental: (§1) The compounds produced in Examples 8 and 9 were separately dissolved at 1 mg/ml in a 1% ammonium bicarbonate solution. In separate tubes, these solutions were treated with trypsin, chymotrypsin and elastase (enzyme:substrate ratio 1:100, 37° C.). Aliquots (20 μl) were withdrawn at intervals and analyzed by HPLC.

[4] = test system: elastase; assay: Polyamide stability to protease digestion, HPLC analysis (elastase); conditions: 24 hours; 1 mg/ml in 1% ammonium bicarbonate, enzyme:substrate 1:100, 37° C.
Experimental: as §1

[5] = test system: chymotrypsin; assay: Polyamide stability to protease digestion, HPLC analysis (chymotrypsin); conditions: 24 hours; 1 mg/ml in 1% ammonium bicarbonate, enzyme:substrate 1:100, 37° C.
Experimental: as §1

[6] = Solubility in solvents; type: physicochemical

Recombinant EPO: recombinant erythropoietin, control
mean OD ([1]; EPO 1.85 ng/ml): .878
mean OD ([1]; EPO 5.56 ng/ml): .885
mean OD ([1]; EPO 16.7 ng/ml): .920
mean OD ([1]; EPO 50 ng/ml): .917
mean OD ([1]; EPO .00254 ng/ml): .101
mean OD ([1]; EPO .00762 ng/ml): .108
mean OD ([1]; EPO .0229 ng/ml): .124
mean OD ([1]; EPO .0686 ng/ml): .179
mean OD ([1]; EPO .206 ng/ml): .362
mean OD ([1]; EPO .617 ng/ml): .650
ED50 (effective dose giving 50% of maximum response) [1]: 25 pM

ADGACRNPWC (H-ADGACRNPWC-{'PEG'‑succ-'PEG'‑succ-'PEG'‑succ-'PEG'‑succ-'PEG'‑succ-'PEG'‑succ-'PEG'‑succ-'PEG'‑succ-Lys(AoA)-NH2}; disulfide 5-10 (inferred); reading uncertain; also: four copies oximated to fluorescein-labelled Lys2Lys template (tetrameric chemobody)) [phage-derived peptide]
binding to the BCL tumor cell line [2]: bound

H-PQPQPKPQPQPQPQPKPQPKPEPE-NH2 [SEQ ID NO:5]
digestion by trypsin [3]: digested extensively
digestion by elastase [4]: stable
digestion by chymotrypsin [5]: stable

amide-GRLPQCVWTMPGMHCAYLGG-COCH2ON═CH—CO-(‘PEG’-succ)12-‘PEG’-CH═NOCH2CO-GGLYACHMGPMTWVCQPLRG-amide [EMP-m (medium dimer)]
ED50 (effective dose giving 50% of maximum response) [1]: 1 pM
mean OD ([1]; concentration 1 × 10^−1 μM): .884
mean OD ([1]; concentration 1.11 × 10^−2 μM): .876
mean OD ([1]; concentration 1.24 × 10^−3 μM): .916
mean OD ([1]; concentration 1.37 × 10^−4 μM): .760
mean OD ([1]; concentration 1.52 × 10^−5 μM): .597
mean OD ([1]; concentration 1.69 × 10^−6 μM): .641
mean OD ([1]; concentration 1.88 × 10^−7 μM): .363
mean OD ([1]; concentration 2.09 × 10^−8 μM): .287
mean OD ([1]; concentration 2.32 × 10^−9 μM): .246
mean OD ([1]; concentration 3.33 × 10^−2 μM): .902
mean OD ([1]; concentration 3.70 × 10^−3 μM): .888
mean OD ([1]; concentration 4.12 × 10^−4 μM): .805
mean OD ([1]; concentration 4.57 × 10^−5 μM): .637
mean OD ([1]; concentration 5.08 × 10^−6 μM): .712
mean OD ([1]; concentration 5.65 × 10^−7 μM): .469
mean OD ([1]; concentration 6.27 × 10^−8 μM): .350
mean OD ([1]; concentration 6.97 × 10^−9 μM): .280

Fmoc-Ser(But)-(‘PEG’-succ)8-Abu-OH
solubility in the water/acetonitrile/TFA HPLC solvent system [6]: perfectly soluble

erythropoietin mimetic peptide monomer, GGLYACHMGPMTWVCQPLRG (SEQ ID NO:1), control [EMP monomer, reference compound]
ED50 (effective dose giving 50% of maximum response) [1]: 20,000 pM
mean OD ([1]; concentration 1 × 10^−1 μM): .878
mean OD ([1]; concentration 1.11 × 10^−2 μM): .373
mean OD ([1]; concentration 1.24 × 10^−3 μM): .078
mean OD ([1]; concentration 1.37 × 10^−4 μM): .089
mean OD ([1]; concentration 3.33 × 10^−2 μM): .673
mean OD ([1]; concentration 3.70 × 10^−3 μM): .210
mean OD ([1]; concentration 4.12 × 10^−4 μM): .078
